Usually IC50 stands for the point on the concentration scale where inhibition reaches its midpoint.

Here are results for four compounds from ChEMBL document CHEMBL1137575, “Target specific virtual screening: optimization of an estrogen receptor screening platform” (J Med Chem, 2007).

Active and inactive are the calls of the source. No cut-off for these calls is given here.

In assay [1] the test system is MCF7. The assay can be described thus: Cytotoxicity against MCF7 cells after 72 hrs by LDH assay. The class given is functional, cell-based. The note with it: Homo sapiens.
The species named for assay [2] is Homo sapiens. The assay can be described thus: Selectivity for ERalpha over ERbeta.
Assay [3] concerns the target Estrogen receptor beta (Homo sapiens, UniProt Q92731). The assay can be described thus: Displacement of fluoromone from human recombinant ERbeta by fluorescence polarization assay.
Assay [4] addresses T1, Estrogen receptor (Homo sapiens, UniProt P03372).
T1 sequence (P03372 whole entry): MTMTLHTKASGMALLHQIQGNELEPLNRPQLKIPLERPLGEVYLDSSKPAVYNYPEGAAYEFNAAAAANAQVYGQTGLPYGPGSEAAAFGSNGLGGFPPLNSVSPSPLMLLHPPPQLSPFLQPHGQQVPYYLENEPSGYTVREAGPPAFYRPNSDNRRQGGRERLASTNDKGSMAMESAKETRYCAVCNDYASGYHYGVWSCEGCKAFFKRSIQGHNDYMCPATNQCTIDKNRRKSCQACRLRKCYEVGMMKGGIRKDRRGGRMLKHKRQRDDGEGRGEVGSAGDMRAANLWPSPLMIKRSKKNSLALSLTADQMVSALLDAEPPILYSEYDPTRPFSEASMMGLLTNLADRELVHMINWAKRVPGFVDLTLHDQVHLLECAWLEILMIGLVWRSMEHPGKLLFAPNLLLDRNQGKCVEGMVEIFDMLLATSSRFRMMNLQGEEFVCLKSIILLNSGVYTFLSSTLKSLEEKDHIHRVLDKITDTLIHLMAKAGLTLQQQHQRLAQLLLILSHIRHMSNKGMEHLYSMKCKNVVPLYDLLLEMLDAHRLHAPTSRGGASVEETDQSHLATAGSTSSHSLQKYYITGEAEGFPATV
The assay can be described thus: Displacement of fluoromone from human recombinant ERalpha by fluorescence polarization assay. A general note: Fluorescence polarisation rises when a labelled molecule tumbles more slowly, as on binding a larger partner.

Assay [5] deals with MCF7. Put plainly: Antiproliferative activity against MCF7 cells after 72 hrs by MTT assay. In kind it is functional, Homo sapiens.

Sequence of Estrogen receptor beta (Q92731 whole entry): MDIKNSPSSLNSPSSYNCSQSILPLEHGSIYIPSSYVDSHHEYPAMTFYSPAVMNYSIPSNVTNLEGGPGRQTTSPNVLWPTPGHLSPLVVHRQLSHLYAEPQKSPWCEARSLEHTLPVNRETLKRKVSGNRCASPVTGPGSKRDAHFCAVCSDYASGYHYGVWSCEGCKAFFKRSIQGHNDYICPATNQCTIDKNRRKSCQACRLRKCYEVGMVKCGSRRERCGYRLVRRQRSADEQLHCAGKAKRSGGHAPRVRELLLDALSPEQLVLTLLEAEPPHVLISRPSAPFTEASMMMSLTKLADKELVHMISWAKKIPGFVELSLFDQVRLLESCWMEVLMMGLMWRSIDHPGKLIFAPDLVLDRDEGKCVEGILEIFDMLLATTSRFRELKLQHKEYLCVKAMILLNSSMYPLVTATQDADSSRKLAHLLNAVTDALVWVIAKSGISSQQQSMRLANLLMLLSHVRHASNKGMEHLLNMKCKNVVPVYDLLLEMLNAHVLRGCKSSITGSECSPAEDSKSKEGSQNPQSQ

With `COc1cc(C2Nc3ccccc3C(=O)N2Cc2ccccc2)ccc1O` (stereo unspecified), the result in assay [1] was Active. Besides, the Ratio IC50 in assay [2] amounted to 4.4. The figures for the IC50 in assay [3] and in assay [4] were 6200 nM and 1100 nM, respectively. For the same compound, the Activity in assay [5] came to 15 µM.
The corresponding values for `COC(=O)C1=C(N)Oc2cc(O)ccc2C1c1ccc(OCc2ccccc2F)cc1` (stereo unspecified) are “Active”, 13.7, 780 nM, 53 nM and 11.4 µM.
The compound `CC/C(=C(\c1ccccc1)c1ccc(OCCN(C)C)cc1)c1ccccc1` [TAMOXIFEN] showed an Activity in assay [5] of 4.6 µM.
On to `COC(=O)C1=C(N)Oc2cc(O)ccc2C1c1ccc(OCc2ccc(C)cc2)cc1` (stereo unspecified), for which the outcome in assay [1] was Active. For the same compound, in assay [2], the Ratio IC50 came out at 17. The half-maximal inhibitory concentration (IC50) is 915 nM in assay [3] and 56 nM in assay [4]. The same compound came in with an Activity in assay [5] of 7 µM.
